Reference: the supplement of paper PMC10307832

Assays:
Assay in all cases: relative viability (nuclei count vs DMSO), 5 days (fraction); higher = more cells survive
[1] = system: IA-LM
Method in brief: (§1)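 Each reported value is a median over duplicate plates. It expresses relative viability: treated-well nuclei count divided by vehicle-well nuclei count. Lung cancer cell lines in 1536-well plates were dosed by pin tool a day after seeding, alone with one drug or with a fixed anchor-drug dose plus five library-drug doses (not always all listed) in √10 steps, and nuclei were counted after 5 days.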

[2] = system: NCI-H1648
Method in brief: as §1

[3] = system: NCI-H1993
Method in brief: as §1

[4] = system: NCI-H23
Method in brief: as §1

[5] = system: NCI-H522
Method in brief: as §1

[6] = system: NCI-H596
Method in brief: as §1

[7] = system: NCI-H1623
Method in brief: as §1

[8] = system: A549
Method in brief: as §1

[9] = system: Calu-6
Method in brief: as §1

[10] = system: EBC-1
Method in brief: as §1

[11] = system: NCI-H1299
Method in brief: as §1

[12] = system: NCI-H1703
Method in brief: as §1

NC(=O)Nc1cc(-c2cccc(F)c2)sc1C(=O)N[C@H]1CCCNC1 [AZD7762] + O=C(CCCCCCC(=O)Nc1ccccc1)NO [Vorinostat] (partner 1 µM)
relative viability ([1]; first compound 0.01 µM): 1.04 | relative viability ([1]; first compound 0.03162 µM): 0.984 | relative viability ([1]; first compound 0.1 µM): 1.04 | relative viability ([1]; first compound 0.3162 µM): 0.74 | relative viability ([1]; first compound 1 µM): 1.17 | relative viability ([2]; first compound 0.01 µM): 0.735 | relative viability ([2]; first compound 0.03162 µM): 0.488 | relative viability ([2]; first compound 0.1 µM): 0.45 | relative viability ([2]; first compound 0.3162 µM): 0.472 | relative viability ([2]; first compound 1 µM): 0.421 | relative viability ([3]; first compound 0.01 µM): 0.764 | relative viability ([3]; first compound 0.03162 µM): 0.729 | relative viability ([3]; first compound 0.1 µM): 0.725 | relative viability ([3]; first compound 0.3162 µM): 0.813 | relative viability ([3]; first compound 1 µM): 0.391 | relative viability ([4]; first compound 0.01 µM): 0.634 | relative viability ([4]; first compound 0.03162 µM): 0.503 | relative viability ([4]; first compound 0.1 µM): 0.582 | relative viability ([4]; first compound 0.3162 µM): 0.248 | relative viability ([4]; first compound 1 µM): 0.149 | relative viability ([5]; first compound 0.01 µM): 0.869 | relative viability ([5]; first compound 0.03162 µM): 0.923 | relative viability ([5]; first compound 0.1 µM): 0.912 | relative viability ([5]; first compound 0.3162 µM): 0.624 | relative viability ([5]; first compound 1 µM): 0.783 | relative viability ([6]; first compound 0.01 µM): 0.691 | relative viability ([6]; first compound 0.03162 µM): 0.803 | relative viability ([6]; first compound 0.1 µM): 0.716 | relative viability ([6]; first compound 0.3162 µM): 0.593 | relative viability ([6]; first compound 1 µM): 0.594

NC(=O)Nc1cc(-c2cccc(F)c2)sc1C(=O)N[C@H]1CCCNC1 [AZD7762] + Cc1nc(Nc2ncc(C(=O)Nc3c(C)cccc3Cl)s2)cc(N2CCN(CCO)CC2)n1 [Dasatinib] (partner 0.075 µM)
relative viability ([7]; first compound 0.01 µM): 0.471 | relative viability ([7]; first compound 0.03162 µM): 0.558 | relative viability ([7]; first compound 0.1 µM): 0.615 | relative viability ([7]; first compound 0.3162 µM): 0.482 | relative viability ([7]; first compound 1 µM): 0.482 | relative viability ([3]; first compound 0.01 µM): 0.629 | relative viability ([3]; first compound 0.03162 µM): 0.599 | relative viability ([3]; first compound 0.1 µM): 0.481 | relative viability ([3]; first compound 0.3162 µM): 0.574 | relative viability ([3]; first compound 1 µM): 0.588 | relative viability ([4]; first compound 0.01 µM): 0.961 | relative viability ([4]; first compound 0.03162 µM): 0.832 | relative viability ([4]; first compound 0.1 µM): 0.877 | relative viability ([4]; first compound 0.3162 µM): 0.567 | relative viability ([4]; first compound 1 µM): 0.313 | relative viability ([5]; first compound 0.01 µM): 0.923 | relative viability ([5]; first compound 0.03162 µM): 0.919 | relative viability ([5]; first compound 0.1 µM): 0.76 | relative viability ([5]; first compound 0.3162 µM): 0.933 | relative viability ([5]; first compound 1 µM): 0.946 | relative viability ([6]; first compound 0.01 µM): 0.66 | relative viability ([6]; first compound 0.03162 µM): 0.632 | relative viability ([6]; first compound 0.1 µM): 0.715 | relative viability ([6]; first compound 0.3162 µM): 0.611 | relative viability ([6]; first compound 1 µM): 0.481

CC1(C)CCC(c2ccc(Cl)cc2)=C(CN2CCN(c3ccc(C(=O)NS(=O)(=O)c4ccc(N[C@H](CCN5CCOCC5)CSc5ccccc5)c(S(=O)(=O)C(F)(F)F)c4)cc3)CC2)C1 [Navitoclax] + O=C(CCCCCCC(=O)Nc1ccccc1)NO [Vorinostat] (partner 1 µM)
relative viability ([1]; first compound 0.005 µM): 0.884 | relative viability ([1]; first compound 0.01581 µM): 0.937 | relative viability ([1]; first compound 0.05 µM): 0.919 | relative viability ([1]; first compound 0.1581 µM): 0.875 | relative viability ([1]; first compound 0.5 µM): 0.965 | relative viability ([2]; first compound 0.005 µM): 0.292 | relative viability ([2]; first compound 0.01581 µM): 0.471 | relative viability ([2]; first compound 0.1581 µM): 0.412 | relative viability ([2]; first compound 0.5 µM): 0.431 | relative viability ([3]; first compound 0.005 µM): 0.74 | relative viability ([3]; first compound 0.01581 µM): 0.81 | relative viability ([3]; first compound 0.05 µM): 1 | relative viability ([3]; first compound 0.1581 µM): 0.708 | relative viability ([3]; first compound 0.5 µM): 0.703 | relative viability ([4]; first compound 0.005 µM): 0.594 | relative viability ([4]; first compound 0.01581 µM): 0.468 | relative viability ([4]; first compound 0.05 µM): 0.505 | relative viability ([4]; first compound 0.1581 µM): 0.478 | relative viability ([4]; first compound 0.5 µM): 0.544 | relative viability ([5]; first compound 0.005 µM): 0.957 | relative viability ([5]; first compound 0.01581 µM): 0.934 | relative viability ([5]; first compound 0.05 µM): 0.841 | relative viability ([5]; first compound 0.1581 µM): 0.878 | relative viability ([5]; first compound 0.5 µM): 0.91 | relative viability ([6]; first compound 0.005 µM): 0.648 | relative viability ([6]; first compound 0.01581 µM): 0.739 | relative viability ([6]; first compound 0.05 µM): 0.299 | relative viability ([6]; first compound 0.1581 µM): 0.55 | relative viability ([6]; first compound 0.5 µM): 0.496

O=C(O)c1ccc(-c2c[nH]c3ncc(-c4ccccc4)cc23)cc1C1CCCC1 + O=C(c1cc(Cc2n[nH]c(=O)c3ccccc23)ccc1F)N1CCN(C(=O)C2CC2)CC1 [Olaparib] (partner 8 µM)
relative viability ([8]; first compound 0.04 µM): 0.224 | relative viability ([8]; first compound 0.1265 µM): 0.674 | relative viability ([8]; first compound 0.4 µM): 0.345 | relative viability ([8]; first compound 1.265 µM): 0.307 | relative viability ([9]; first compound 0.04 µM): 0.521 | relative viability ([9]; first compound 0.1265 µM): 0.56 | relative viability ([9]; first compound 0.4 µM): 0.488 | relative viability ([9]; first compound 1.265 µM): 0.395 | relative viability ([10]; first compound 0.04 µM): 0.692 | relative viability ([10]; first compound 0.1265 µM): 0.626 | relative viability ([10]; first compound 0.4 µM): 0.618 | relative viability ([10]; first compound 1.265 µM): 0.406 | relative viability ([1]; first compound 0.04 µM): 0.836 | relative viability ([1]; first compound 0.1265 µM): 0.758 | relative viability ([1]; first compound 0.4 µM): 0.846 | relative viability ([1]; first compound 1.265 µM): 0.719 | relative viability ([11]; first compound 0.04 µM): 0.964 | relative viability ([11]; first compound 0.1265 µM): 1 | relative viability ([11]; first compound 0.4 µM): 0.893 | relative viability ([11]; first compound 1.265 µM): 0.821 | relative viability ([2]; first compound 0.04 µM): 0.676 | relative viability ([2]; first compound 0.1265 µM): 1.15 | relative viability ([2]; first compound 0.4 µM): 0.763 | relative viability ([12]; first compound 0.04 µM): 0.57 | relative viability ([12]; first compound 0.1265 µM): 0.468 | relative viability ([12]; first compound 0.4 µM): 0.382 | relative viability ([12]; first compound 1.265 µM): 0.49 | relative viability ([3]; first compound 0.04 µM): 0.902 | relative viability ([3]; first compound 0.1265 µM): 1.19 | relative viability ([3]; first compound 0.4 µM): 1.04 | relative viability ([3]; first compound 1.265 µM): 0.974 | relative viability ([4]; first compound 0.04 µM): 0.34 | relative viability ([4]; first compound 0.1265 µM): 0.33 | relative viability ([4]; first compound 0.4 µM): 0.289 | relative viability ([4]; first compound 1.265 µM): 0.271 | relative viability ([5]; first compound 0.04 µM): 0.816 | relative viability ([5]; first compound 0.1265 µM): 0.673 | relative viability ([5]; first compound 0.4 µM): 0.596 | relative viability ([5]; first compound 1.265 µM): 0.755 | relative viability ([6]; first compound 0.04 µM): 0.711 | relative viability ([6]; first compound 0.1265 µM): 0.745 | relative viability ([6]; first compound 0.4 µM): 0.749 | relative viability ([6]; first compound 1.265 µM): 0.607

CC1(C)CCC(c2ccc(Cl)cc2)=C(CN2CCN(c3ccc(C(=O)NS(=O)(=O)c4ccc(N[C@H](CCN5CCOCC5)CSc5ccccc5)c(S(=O)(=O)C(F)(F)F)c4)cc3)CC2)C1 [Navitoclax] + O=C(c1cc(Cc2n[nH]c(=O)c3ccccc23)ccc1F)N1CCN(C(=O)C2CC2)CC1 [Olaparib] (partner 8 µM)
relative viability ([8]; first compound 0.005 µM): 0.37 | relative viability ([8]; first compound 0.01581 µM): 0.33 | relative viability ([8]; first compound 0.05 µM): 0.119 | relative viability ([8]; first compound 0.1581 µM): 0.33 | relative viability ([8]; first compound 0.5 µM): 0.302 | relative viability ([9]; first compound 0.005 µM): 0.57 | relative viability ([9]; first compound 0.01581 µM): 0.518 | relative viability ([9]; first compound 0.05 µM): 0.558 | relative viability ([9]; first compound 0.1581 µM): 0.457 | relative viability ([9]; first compound 0.5 µM): 0.478 | relative viability ([10]; first compound 0.005 µM): 0.745 | relative viability ([10]; first compound 0.01581 µM): 0.864 | relative viability ([10]; first compound 0.05 µM): 0.658 | relative viability ([10]; first compound 0.1581 µM): 0.683 | relative viability ([10]; first compound 0.5 µM): 0.663 | relative viability ([1]; first compound 0.005 µM): 0.814 | relative viability ([1]; first compound 0.01581 µM): 0.836 | relative viability ([1]; first compound 0.05 µM): 0.792 | relative viability ([1]; first compound 0.1581 µM): 0.789 | relative viability ([1]; first compound 0.5 µM): 0.866 | relative viability ([11]; first compound 0.005 µM): 0.943 | relative viability ([11]; first compound 0.01581 µM): 1 | relative viability ([11]; first compound 0.05 µM): 0.949 | relative viability ([11]; first compound 0.1581 µM): 0.977 | relative viability ([11]; first compound 0.5 µM): 0.956 | relative viability ([2]; first compound 0.005 µM): 0.632 | relative viability ([2]; first compound 0.01581 µM): 1.06 | relative viability ([2]; first compound 0.1581 µM): 0.922 | relative viability ([2]; first compound 0.5 µM): 1.03 | relative viability ([12]; first compound 0.005 µM): 0.536 | relative viability ([12]; first compound 0.01581 µM): 0.626 | relative viability ([12]; first compound 0.05 µM): 0.508 | relative viability ([12]; first compound 0.1581 µM): 0.512 | relative viability ([12]; first compound 0.5 µM): 0.536 | relative viability ([3]; first compound 0.005 µM): 1.09 | relative viability ([3]; first compound 0.01581 µM): 1.32 | relative viability ([3]; first compound 0.05 µM): 0.936 | relative viability ([3]; first compound 0.1581 µM): 0.984 | relative viability ([3]; first compound 0.5 µM): 1.02 | relative viability ([4]; first compound 0.005 µM): 0.328 | relative viability ([4]; first compound 0.01581 µM): 0.301 | relative viability ([4]; first compound 0.05 µM): 0.272 | relative viability ([4]; first compound 0.1581 µM): 0.291 | relative viability ([4]; first compound 0.5 µM): 0.343 | relative viability ([5]; first compound 0.005 µM): 0.657 | relative viability ([5]; first compound 0.01581 µM): 0.745 | relative viability ([5]; first compound 0.05 µM): 0.757 | relative viability ([5]; first compound 0.1581 µM): 0.542 | relative viability ([5]; first compound 0.5 µM): 0.62 | relative viability ([6]; first compound 0.005 µM): 0.663 | relative viability ([6]; first compound 0.01581 µM): 0.758 | relative viability ([6]; first compound 0.05 µM): 0.533 | relative viability ([6]; first compound 0.1581 µM): 0.598 | relative viability ([6]; first compound 0.5 µM): 0.626
